30 compounds from US10351575B2, “Bicyclic urea, thiourea, guanidine and cyanoguanidine compounds useful for the treatment of pain” (Array BioPharma Inc., priority 2012, dated 2019) can be followed below.

Structures are written as SMILES. Bounds are passed on as bounds.

Sequence of His-tagged recombinant human TrkA (P04629 440-796): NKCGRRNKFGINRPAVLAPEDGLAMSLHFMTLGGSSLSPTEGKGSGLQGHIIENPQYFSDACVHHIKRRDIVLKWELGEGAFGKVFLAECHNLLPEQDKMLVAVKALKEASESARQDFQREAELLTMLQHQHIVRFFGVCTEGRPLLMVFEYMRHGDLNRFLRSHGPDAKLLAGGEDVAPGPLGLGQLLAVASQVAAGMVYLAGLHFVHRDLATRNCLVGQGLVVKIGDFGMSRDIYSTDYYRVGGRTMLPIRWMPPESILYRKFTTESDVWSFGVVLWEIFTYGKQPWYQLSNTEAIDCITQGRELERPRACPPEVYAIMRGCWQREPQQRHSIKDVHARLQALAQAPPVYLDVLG

This test addresses His-tagged recombinant human TrkA (Homo sapiens (Human), UniProt P04629). Put plainly: TrkA LanthaScreen Eu Kinase Binding Assay. The conditions noted are these: averaged IC50; TR-FRET binding, 60 min, 22° C.; read-out: TrkA Enzyme IC50. The procedure:
TrkA binding activity was determined in a TrkA LanthaScreen™ Eu Kinase Binding Assay. 5 nM His-tagged recombinant human TrkA (6HIS tagged cytoplasmic domain from Invitrogen, Catalog No. PV3144) was incubated with 4 nM Alexa-Fluor® Tracer 236 (Invitrogen Cat. No. PV5592), 2 nM biotinylated anti-His (Invitrogen Cat. No. PV6090), and 2 nM europium-labeled Streptavidin (Invitrogen Cat. No. PV5899), in buffer (25 mM MOPS, pH 7.5, 5 mM MgCl2, 0.005% Triton X-100). Three fold serial dilutions of compounds of the invention in DMSO were added to a final percentage of 2% DMSO. After 60-minute incubation at 22° C., the reaction was measured using the EnVision mutlimode plate reader (PerkinElmer) via TR-FRET dual wavelength detection at […]. The percent of control was calculated using a ratiometric emission factor. The IC50 values were determined by fitting a four parameter model to the percent of control data.
(In TR-FRET formats the signal depends on donor and acceptor labels being close together.)
For the compound `CNC(=O)c1nn(-c2ccccc2)c(NC(=O)N[C@@H]2c3ccccc3C(C)(C)C[C@H]2O)c1C` (relative stereo) [Example 124, 5-(3-(trans-2-hydroxy-4,4-dimethyl-1,2,3,4-tetrahydronaphthalen-1-yl)ureido)-N,4-dimethyl-1-phenyl-1H-pyrazole-3-carboxamide], the IC50 was less than 100 nM.

Regarding `CNC(=O)c1nn(-c2ccccc2)c(NC(=O)N[C@@H]2c3cc(Cl)ccc3C(C)(C)C[C@H]2O)c1C` (relative stereo) [Example 125, 5-(3-(trans-7-chloro-2-hydroxy-4,4-dimethyl-1,2,3,4-tetrahydronaphthalen-1-yl)ureido)-N,4-dimethyl-1-phenyl-1H-pyrazole-3-carboxamide], the IC50 was less than 100 nM.

`Cc1nn(-c2ccccc2)c(NC(=O)N[C@@H]2c3ccccc3CCC[C@H]2O)c1C` (relative stereo) [Example 126, 1-(3,4-dimethyl-1-phenyl-1H-pyrazol-5-yl)-3-(trans-6-hydroxy-6,7,8,9-tetrahydro-5H-benzo[7]annulen-5-yl)urea]: the IC50 is 100 to 1000 nM.

Consider `Cc1ncc(-c2nn(-c3ccccc3)c(NC(=O)N[C@@H]3c4ccccc4CCC[C@H]3O)c2C)cn1` (relative stereo) [Example 127, 1-(trans-6-hydroxy-6,7,8,9-tetrahydro-5H-benzo[7]annulen-5-yl)-3-(4-methyl-3-(2-methylpyrimidin-5-yl)-1-phenyl-1H-pyrazol-5-yl)urea], for which the IC50 was in the range of 100 to 1000 nM.

As for `COc1ncc(-c2nn(-c3ccccc3)c(NC(=O)N[C@@H]3c4ccccc4CCC[C@H]3O)c2C)cn1` (relative stereo) [Example 128, 1-(trans-6-hydroxy-6,7,8,9-tetrahydro-5H-benzo[7]annulen-5-yl)-3-(3-(2-methoxypyrimidin-5-yl)-4-methyl-1-phenyl-1H-pyrazol-5-yl)urea], the IC50 fell in the range of 100 to 1000 nM.

Take `Cc1c(-c2cnn(C)c2)nn(-c2ccccc2)c1NC(=O)N[C@@H]1c2ccccc2C2(CCC2)[C@H]1O` (relative stereo) [Example 142, 1-(1′,4-dimethyl-1-phenyl-1H,1′H-[3,4′-bipyrazol]-5-yl)-3-(trans-2′-hydroxy-2′,3′-dihydrospiro[cyclobutane-1,1′-inden]-3′-yl)urea]: the IC50 was less than 100 nM.

As to `COc1nn(-c2ccccc2)c(NC(=O)N[C@@H]2c3ccccc3C3(CC3)C[C@H]2O)c1C` (relative stereo) [Example 152, 1-(trans-3′-hydroxy-3′,4′-dihydro-2′H-spiro[cyclopropane-1,1′-naphthalen]-4′-yl)-3-(3-methoxy-4-methyl-1-phenyl-1H-pyrazol-5-yl)urea], the IC50 is less than 100 nM.

Regarding `COc1nn(-c2ccccc2)c(NC(=O)N[C@@H]2c3ccccc3OC3(CCC3)[C@H]2O)c1C` (relative stereo) [Example 159, 1-(trans-3-hydroxyspiro[chroman-2,1′-cyclobutan]-4-yl)-3-(3-methoxy-4-methyl-1-phenyl-1H-pyrazol-5-yl)urea], the IC50 was less than 100 nM.

On to `Cc1c(-c2cnn(C)c2)nn(-c2ccccc2)c1NC(=O)N[C@@H]1c2ccccc2OC2(CCC2)[C@H]1O` (relative stereo) [Example 160, 1-(1′,4-dimethyl-1-phenyl-1H,1′H-[3,4′-bipyrazol]-5-yl)-3-(trans-3-hydroxyspiro[chroman-2,1′-cyclobutan]-4-yl)urea], for which the IC50 was less than 100 nM.

With `Cc1c(-c2cnn(C)c2)nn(-c2ccccc2)c1NC(=O)N[C@H]1c2ccccc2C2(CC2)[C@@H]1O` (stereo in doubt) [Example 138, 1-(1′,4-dimethyl-1-phenyl-1H,1′H-[3,4′-bipyrazol]-5-yl)-3-((2′S,3′S)-2′-hydroxy-2′,3′-dihydrospiro[cyclopropane-1,1′-inden]-3′-yl)urea], the IC50 was in the range of 100 to 1000 nM.

For `Cc1c(-c2cnn(C)c2)nn(-c2ccccc2)c1NC(=O)NC1CCCc2ccccc21` (stereo not drawn) [Example 1, 1-(1′,4-dimethyl-1-phenyl-1H,1′H-3,4′-bipyrazol-5-yl)-3-(1,2,3,4-tetrahydronaphthalen-1-yl)urea], the IC50 is less than 100 nM.

Regarding `O=C(Nc1c2c(nn1-c1ccccc1)CCC2)N[C@H]1CCCc2ccccc21` [Example 3, (S)-1-(2-phenyl-2,4,5,6-tetrahydrocyclopenta[c]pyrazol-3-yl)-3-(1,2,3,4-tetrahydronaphthalen-1-yl)urea], the IC50 was less than 100 nM.

For `Cc1c(-c2cnn(C)c2)nn(-c2ccccc2)c1NC(=O)N[C@@H]1CCCc2ccccc21` [Example 4, (R)-1-(1′,4-dimethyl-1-phenyl-1H,1′H-3,4′-bipyrazol-5-yl)-3-(1,2,3,4-tetrahydronaphthalen-1-yl)urea], the IC50 lay within 100 to 1000 nM.

As for `COc1ccc2c(c1)CCCC2NC(=O)Nc1c(C)c(-c2cnn(C)c2)nn1-c1ccccc1` (stereo not drawn) [Example 5, 1-(1′,4-dimethyl-1-phenyl-1H,1′H-3,4′-bipyrazol-5-yl)-3-(6-methoxy-1,2,3,4-tetrahydronaphthalen-1-yl)urea], the IC50 is 100 to 1000 nM.

Regarding `Cc1c(-c2cnn(C)c2)nn(-c2ccccc2)c1NC(=O)NC1CCCCc2ccccc21` (stereo not drawn) [Example 6, 1-(1′,4-dimethyl-1-phenyl-1H,1′H-3,4′-bipyrazol-5-yl)-3-(6,7,8,9-tetrahydro-5H-benzo[7]annulen-5-yl)urea], the IC50 was less than 100 nM.

For the compound `Cc1c(-c2cnn(C)c2)nn(-c2ccccc2)c1NC(=O)NC1CCOc2ccccc21` (stereo not drawn) [Example 7, 1-(chroman-4-yl)-3-(1′,4-dimethyl-1-phenyl-1H,1′H-3,4′-bipyrazol-5-yl)urea], the IC50 fell in the range of 100 to 1000 nM.

As to `Cc1c(-c2cnn(C)c2)nn(-c2ccccc2)c1NC(=O)NC1COCc2ccccc21` (stereo not drawn) [Example 8, 1-(1′,4-dimethyl-1-phenyl-1H,1′H-3,4′-bipyrazol-5-yl)-3-(isochroman-4-yl)urea], the IC50 fell in the range of 100 to 1000 nM.

On to `Cc1c(-c2cnn(C)c2)nn(-c2ccccc2)c1NC(=O)NC1CC(C)(C)Oc2ccccc21` (stereo not drawn) [Example 9, 1-(1′,4-dimethyl-1-phenyl-1H,1′H-3,4′-bipyrazol-5-yl)-3-(2,2-dimethylchroman-4-yl)urea], for which the IC50 is 100 to 1000 nM.

With `Cc1c(-c2cnn(C)c2)nn(-c2ccccc2)c1NC(=O)NC1COCc2ccc(Br)cc21` (stereo not drawn) [Example 10, 1-(6-bromoisochroman-4-yl)-3-(1′,4-dimethyl-1-phenyl-1H,1′H-[3,4′-bipyrazol]-5-yl)urea], the IC50 is less than 100 nM.

As to `Cc1nn(-c2ccccc2)c(NC(=O)N[C@H]2CCCc3ccccc32)c1Br` [Example 11, (S)-1-(4-bromo-3-methyl-1-phenyl-1H-pyrazol-5-yl)-3-(1,2,3,4-tetrahydronaphthalen-1-yl)urea], the IC50 is less than 100 nM.

With `CCOc1nn(-c2ccccc2)c(NC(=O)NC2CCOc3cc(F)ccc32)c1C` (stereo not drawn) [Example 13, 1-(3-ethoxy-4-methyl-1-phenyl-1H-pyrazol-5-yl)-3-(7-fluorochroman-4-yl)urea], the IC50 was in the range of 100 to 1000 nM.

Regarding `Cc1c(-c2cnn(C)c2)nn(-c2ccccc2)c1NC(=O)NC1CC(C)Oc2ccc(F)cc21` (stereo not drawn) [Example 14, 1-(1′,4-dimethyl-1-phenyl-1H,1′H-[3,4′-bipyrazol]-5-yl)-3-(6-fluoro-2-methylchroman-4-yl)urea], the IC50 was in the range of 100 to 1000 nM.

With `Cc1c(-c2cnn(C)c2)nn(-c2ccccc2)c1NC(=O)NC1CCCc2ccc(Br)cc21` (stereo not drawn) [Example 15, 1-(7-bromo-1,2,3,4-tetrahydronaphthalen-1-yl)-3-(1′,4-dimethyl-1-phenyl-1H,1′H-[3,4′-bipyrazol]-5-yl)urea], the IC50 was less than 100 nM.

For the compound `Cc1c(-c2cnn(C)c2)nn(-c2ccccc2)c1NC(=O)NC1CCC(C)(C)c2ccc(Br)cc21` (stereo not drawn) [Example 16, 1-(7-bromo-4,4-dimethyl-1,2,3,4-tetrahydronaphthalen-1-yl)-3-(1′,4-dimethyl-1-phenyl-1H,1′H-[3,4′-bipyrazol]-5-yl)urea], the concentration for half-maximal inhibition (IC50) was less than 100 nM.

`COCCN1CCc2ccccc2C(NC(=O)Nc2c(C)c(-c3cnn(C)c3)nn2-c2ccccc2)C1` (stereo not drawn) [Example 17, 1-(1′,4-dimethyl-1-phenyl-1H,1′H-3,4′-bipyrazol-5-yl)-3-(3-(2-methoxyethyl)-2,3,4,5-tetrahydro-1H-benzo[d]azepin-1-yl)urea]: the IC50 lay within 100 to 1000 nM.

Turning to `Cc1c(-c2cnn(C)c2)nn(-c2ccccc2)c1NC(=O)NC1CN(CC(F)(F)F)CCc2ccccc21` (stereo not drawn) [Example 18, 1-(1′,4-dimethyl-1-phenyl-1H,1′H-3,4′-bipyrazol-5-yl)-3-(3-(2,2,2-trifluoroethyl)-2,3,4,5-tetrahydro-1H-benzo[d]azepin-1-yl)urea], the IC50 is 100 to 1000 nM.

As to `CC(=O)N1CCc2ccccc2C(NC(=O)Nc2c(C)c(-c3cnn(C)c3)nn2-c2ccccc2)C1` (stereo not drawn) [Example 19, 1-(3-acetyl-2,3,4,5-tetrahydro-1H-benzo[d]azepin-1-yl)-3-(1′,4-dimethyl-1-phenyl-1H,1′H-3,4′-bipyrazol-5-yl)urea], the IC50 was in the range of 100 to 1000 nM.

Regarding `CCC(=O)N1CCc2ccccc2C(NC(=O)Nc2c(C)c(-c3cnn(C)c3)nn2-c2ccccc2)C1` (stereo not drawn) [Example 20, 1-(1′,4-dimethyl-1-phenyl-1H,1′H-3,4′-bipyrazol-5-yl)-3-(3-propionyl-2,3,4,5-tetrahydro-1H-benzo[d]azepin-1-yl)urea], the IC50 was 100 to 1000 nM.

As for `CCCN1CCc2ccccc2C(NC(=O)Nc2c(C)c(-c3cnn(C)c3)nn2-c2ccccc2)C1` (stereo not drawn) [Example 21], the IC50 was 100 to 1000 nM.

On to `CCN1Cc2ccccc2C(NC(=O)Nc2c3c(nn2-c2ccccc2)CCC3)C1` (stereo not drawn) [Example 22, 1-(2-ethyl-1,2,3,4-tetrahydroisoquinolin-4-yl)-3-(2-phenyl-2,4,5,6-tetrahydrocyclopenta[c]pyrazol-3-yl)urea], for which the IC50 was 100 to 1000 nM.

One may read the IC50 as the concentration needed to halve the response being measured.
